Source: patent US20230145868A1, “UREA INHIBITORS OF MICRO-RNA” (Board of Regents, The University of Texas System, priority 2020, published 2023)

Columns and labels:
[1] = Microsomal stability assay, human; format: in vitro ADME; settings: pH 7.4; human liver microsomes; 1 μM test compound; unit printed in b356 only
Experimental: (§1) The liver microsomal incubation mixture was composed of liver microsomes (with a concentration of 0.5 mg microsomal protein/ml), the test compound (1 μM), MgCl2 (3 mM), EDTA (1 mM) in potassium phosphate buffer (100 mM, pH 7.4). Control substrates used were Midazolam and Ketanserin. The reaction was initiated with the addition of an NADPH regeneration solution (1.3 mM NADPH) and maintained at 37° C. with shaking. At five sequential time points ranging from 0 to 45 min, aliquots of the mixture (50 μL) were removed and quenched with acetonitrile (100 μL) containing an internal standard control (imipramine) Samples were analyzed after vortexing and centrifugation by liquid chromatography-mass spectrometry (LC-MS/MS). The in vitro t1/2 was then calculated and clearance followed literature.

[2] = tested on: human pre-miR-10b RNA hairpin; test: NMR detection of compound binding to miRNA
Experimental: The human pre-miR-10b RNA hairpin sequence (nucleotides 40-75, per miRbase) was transcribed enzymatically and purified using methods previously described. The NMR screening buffer consisted of 20 mM Bis-Tris-d19 at pH 6.5, 10 mM NaCl, 0.2% Tween-20, and 11.1 μM DSA as chemical shift reference (integrates to 100 μM), prepared in 99.99% D2O or 95%H2O/5%D2O. Each ligand was first dissolved in DMSO to a 10 mM stock concentration. Free ligand screening samples were prepared at a final DMSO concentration of […] at a concentration of 100 μM in NMR screening buffer. For RNA target detected experiments, the lyophilized RNA pellets were dissolved in DMSO-free NMR screening buffer and heated for 4 min at 90° C., then snap cooled for 5 min at −20° C. ^1D-^1H experiments for both ligand and RNA were collected using the Bruker “zgesgp” excitation sculpting pulse sequence to suppress background water signal. Data was collected with 64 scans and 16K data points. Data was processed using 16K zero points, then Fourier transformed followed by manual phase and baseline correction. 2D-^1H TOCSY experiments were collected using the Bruker “mlevesgpph” pulse sequence with excitation sculpting water suppression, data collected with 32 scans, 2K×512 data points, a recycle delay of 1.2 s, and spin-lock mixing time of 80 ms. […]

[3] = Microsomal stability assay, mouse; format: in vitro ADME; settings: 1 μM test compound, unit printed in b356 only
Experimental: as §1

U251 brain cancer line = test: Clonogenic assay; format: cell-based, human; settings: dose-dependent, 1 μM up to 5 μM, two weeks
Experimental: In vitro clonogenic assays were conducted with adherent lines seeded in 12-well plates, treated for two weeks, and stained with crystal violet.

PDGF = test: Western blot, PDGF expression; format: cell-based, human; settings: LN229 and U251 brain cancer cell lines
Experimental: (§2) Proteins are collected from cultured cells and lysed with 10× Lysis Buffer (Cell Signaling) freshly supplemented with a complete protease inhibitor cocktail and phosphatase inhibitors (Sigma). Bradford assay is used to measure protein concentration. Proteins are separated by polyacrylamide gel (Bio-rad) electrophoresis and were transferred to a 0.2 μm nitrocellulose membrane (Bio-rad). Quantification of protein expression was conducted using the image analysis software ImageJ.

U251 cell line = test: MTS proliferation assay, U251; format: cell-based, human; settings: 5 and 10 μM, beginning at 48 h of treatment
Experimental: (§3) IC50 dose-response curves were determined using the cell proliferation assay system. Briefly, 5,000 or 10,000 cells of each cell line were plated in 96-well microculture plates in replicates of either 4 or 6. When cells became adherent, either 5 or 10 sequentially decreasing doses of the small molecule miRNA inhibitor were diluted into new media and added to individual wells. After either 24 or 48 hours, of a tetrazolium salt such as MTS, MTT, or WST-8 was added to each well at the same time of day as treatment and incubated for either 2 or 3 h at 37° C. The OD, measuring at the appropriate wavelength for the dye, was read at on a microplate spectrophotometer.
(§4) Cell proliferation is determined using a colorimetric assay. A tetrazolium salt such as MTS, MTT, or WST-8 is reduced by dehydrogenase activities in cells to give a formazan dye, which is soluble in the tissue culture media. The amount of the formazan dye (generated by the activities of dehydrogenases in cells, and directly proportional to the number of living cells) is measured after 3 h of incubation. The OD is read at 450 nm on a microplate spectrophotometer and growth values (%) are calculated as (OD treated cells/OD untreated cells)×100. The experiments are performed in triplicate. […] The OD is read at 450/550 nm on a microplate spectrophotometer, after one to seven days of the treatment. […]

LN229 cell line = test: MTS proliferation assay, LN229; format: cell-based, human; settings: 5 and 10 μM, beginning at 48 h of treatment
Experimental: as §3, §4

[4] = tested on: proteins on the PI3K/AKT pathway; test: Reverse phase protein array (RPPA), PI3K/AKT pathway; format: cell-based, human; settings: U251; 10 μM (FIG. 23); p<0.01
Experimental: Proteomics analysis was conducted at the Reverse Phase Protein Array Core facility at MD Anderson Cancer Center. Briefly, controls and treated samples were analyzed in triplicate for 486 unique antibodies. The outputs were then normalized for protein loading and transformed to the linear value, and the normalized data was logy transformed (log2(x+1)) and sorted by FDR-adjusted p-values with a significance level of p<0.05. Differentially expressed proteins between groups were identified using the moderated t-test from LIMMA package. […] Analyses and graphical representations were carried out in R. When preparing the data for analysis, the loge fold change was calculated and adjusted p-value was used for analysis. Gene symbols were converted using the DAVID bioinformatics resource and the clusterProfiler data visualization and analysis package was used for pathway enrichment analysis. For pathway analysis, the Hallmark gene set and Gene Ontology was used for gene set and pathway enrichment.

Drosha = test: Western blot, Drosha expression; format: cell-based, human; settings: AsPC1, AGS, U251, LN229
Experimental: as §2

[5] = mouse, liver microsomes, pH 7.4, mouse liver microsomes

Compound: Cc1ccc(F)c(NC(=O)Nc2ccc(-c3cccc4cn[nH]c34)cc2)c1 [Example 4, 1-(4-(1H-indazol-7-yl)phenyl)-3-(2-fluoro-5-methylphenyl)urea]
- CLint scaled at 1 μM [1]: 14.9 mL/min/kg
- half-life at 1 μM [1]: 1.93 h
- target detect 2D 1H-1H TOCSY, binding to pre-miR-10b ([2]; 50 μM pre-miR-10b titrated with 100 μM, largest shifts U6, U7, U8, U26, C27, C29, U33): directly binds to the hairpin structure of precursor miR-10b
- ligand detected 1D-1H line broadening (peak signal free vs bound) ([2]; ligand with pre-miR-10b sequence, methyl protons, indicative of direct binding): large decrease in peak signal
- CLint ([3]; mouse liver microsomes): 58.9 mL/min/kg
- Half-life ([3]; mouse liver microsomes): 1.55 h
- CLint scaled at 1 μM [3, 5]: 58 mL/min/kg
- half-life at 1 μM [3, 5]: 1.53 h
- formation of colonies (U251 brain cancer line): suppressed the formation of colonies
- PDGF expression (Western blot) (PDGF): low to very slight variations
- proliferation (MTS), every 24 h over 96 h (U251 cell line): significant difference in proliferation
- proliferation (MTS), every 24 h over 96 h (LN229 cell line): significant difference in proliferation
- expression of proteins on the PI3K/AKT pathway (RPPA) [4]: ten of the twelve proteins showing significant downregulation
- Drosha expression (Western blot) (Drosha): little to no variation
